US6682896B1, “Peptides representing epitopic sites on r-IFN-β, antibodies thereto and uses thereof” (Schering Aktiengesellschaft, priority 1988, dated 2004)

Experiments:
Settings in all cases: 50 μg peptide per well dried to well; goat anti-mouse/HRP, ABTS
[1] = tested on: neutralizing mAb A5; assay: ELISA binding of mAb A5 to plate-dried synthetic peptides
Description: (§1) A series of enzyme-linked immunosorbent assays (ELISA) were run in which a panel of three neutralizing mab's, identified as A1, A5 and A7 (developed by […] Grossberg at the Medical College of Wisconsin) and a single non-neutralizing mAb, identified as B2b (received from Medical College of Wisconsin, […] and S. Grossberg), was assessed for binding to synthetic peptides IB, IC, IE, and a control. In each case, the peptide was dissolved in 0.05M Tris buffer, pH 9.5 and aliquoted in 100 μl volumes to wells of a microtiter plate (Corning) at a concentration of 50 μg peptide per well. The plate was placed in a vacuum dessicator overnight to dry the peptide to the well. Standard ELISA procedures were followed after the overnight coupling, i.e. common blocking steps, washes, incubation conditions and color development of the appropriate goat anti-mouse/horseradish peroxidase conjugate with ABTS substrate. […] The non neutralizing mAb B2b reacted with peptides IB and IC but not with IE.

[2] = tested on: neutralizing mAb A7; assay: ELISA binding of mAb A7 to plate-dried synthetic peptides
Description: as §1

[3] = tested on: non-neutralizing mAb B2b; assay: ELISA binding of mAb B2b to plate-dried synthetic peptides
Description: as §1

Reaction (binding) of mAb A5 with peptide in ELISA [1]: preferential binding | Reaction (binding) of mAb A7 with peptide in ELISA [2]: virtually no activity | Reaction (binding) of non-neutralizing mAb B2b with peptide in ELISA [3]: not with IE
Substance: H-IPEEIKQL-OH [peptide IE, NH2-Ile-Pro-Glu-Glu-Ile-Lys-Gln-Leu-COOH]
